# Measurements as given in patent publication US6669945B1, “Universal T-cell epitopes for anti-malarial vaccines” (New York University, priority 1997, dated 2003).
# Where two headings read alike, the source gives them in different places. Where no end group is shown, it is not given here. The star is where a group is joined. Biotin = O=C1N[C@H]2[C@H](CS[C@H]2CCCCC(=O)*)N1
# What was measured:
# [1] = biological target: DQ 7 (DQA1*0501/DQB1*0301) (Homo sapiens, UniProt P01909+P01920); experiment: Peptide competition assay, soluble DQ molecules; format: binding; conditions: soluble DQ 7 (FIG. 3B)
# [2] = biological target: T1, DQ 9 (DQA1*0201/DQB1*0303) (Homo sapiens, UniProt P01909+P01920, A45G/C70K/E183D/E77G/F237L/F77L/G63E/H199R/I129T/K197E/L178F/L74F/Q57E/Q76R/R75H/S185I/S97I/T217I/V73L/Y48F/Y58L); experiment: Peptide competition assay, soluble DQ molecules; format: binding; conditions: soluble DQ 9 (FIG. 3A)
# T1 construct: made in house; host or cells: insect cells, baculovirus expression system
# DR 11 (5) (DRB1*1101) = DR 11 (5) (DRB1*1101) (Homo sapiens, UniProt P01903+P01911, A100R/A169T/A87E/I96F/K41T/L162R/M171V/P40S/Q125H/Q178H/Q39Y/Q99D/R42S/S66Y/T262R/V115G/W38E); experiment: biochemical; format: binding; conditions: DR 11 (5) DRB1*1101, biotinyl-peptide TT831-843; read-out: Competitor Peptide IC50
# DR 8 (DRB1*0801) = DR 8 (DRB1*0801) (Homo sapiens, UniProt P01903+P01911, A100R/A103L/A169T/D86S/F76Y/H45Y/I96F/K41T/L162R/M171V/P40S/Q125H/Q178H/Q39Y/Q99D/R218S/R42G/S66Y/V115G/W38E); experiment: biochemical; format: binding; conditions: DR 8 DRB1*0801, biotinyl-peptide GYR(A)6L; read-out: Competitor Peptide IC50
# DR 1 (DRB1*0101) = biological target: T2, DR 1 (DRB1*0101) (Homo sapiens, UniProt P01903+P01911, A100R/D57E/F55L/F60I/F76Y/I96L/L162R/M171V/P40L/Q125E/R42F/V115G/Y59C); experiment: biochemical; format: binding; conditions: DR 1 DRB1*0101, biotinyl-peptide GFK(A)7; read-out: Competitor Peptide IC50
# T2 construct: The class II molecules in the cell extracts were purified by immunoaffnity; endogenous in cells
# DR 2 (DRB5*0101) = biological target: T3, DR 2 (DRB5*0101) (Homo sapiens, UniProt P01903+Q30154); experiment: biochemical; format: binding; conditions: DR 2 DRB5*0101, biotinyl-peptide MBP; read-out: Competitor Peptide IC50
# T3 construct: expressed in transfected cells; host or cells: L cell transfectant L416.3
# DR 3 (DRB1*0301) = biological target: T4, DR 3 (DRB1*0301) (Homo sapiens, UniProt P01903+P01911, A100K/A102G/A103R/A169T/F55Y/I96L/K41T/L162R/M171V/P40S/Q125H/Q178H/Q39Y/R42S/S66N/T106N/T262R/W38E/Y61H); experiment: biochemical; format: binding; conditions: DR 3 DRB1*0301, biotinyl-peptide IAYD(A)5; read-out: Competitor Peptide IC50
# T4 construct: The class II molecules in the cell extracts were purified by immunoaffnity; endogenous in cells
# DR 4 (DRB1*0401) = biological target: T5, DR 4 (DRB1*0401) (Homo sapiens, UniProt P01903+P01911, A100K/A169T/F76Y/I96L/K127E/L162R/M171V/N62H/P40V/Q125Y/R42H/S133A/S149N/S66Y/V115G/V209L/W38E); experiment: biochemical; format: binding
# T5 construct: The class II molecules in the cell extracts were purified by immunoaffnity; endogenous in cells
# DR 13 (DRB1*1301) = DR 13 (DRB1*1301) (Homo sapiens, UniProt P01903+P01911, A100E/A169T/K41T/L162R/M171V/P40S/Q125H/Q178H/Q39Y/Q99D/R42S/S66N/T262R/W38E/Y61H); experiment: biochemical; conditions: soluble DR 13, indicator GFK(A)7 (FIG. 2B); read-out: IC50, inhibition of binding of biotinylated GFK(A)7
# DR 7 (DRB1*0701) = DR 7 (DRB1*0701) (Homo sapiens, UniProt P01903+P01911, A100R/A102G/A103Q/D57E/D86V/E43K/F76Y/K127E/L162R/M171V/P40G/Q125H/Q99D/R33Q/R42Y/R54Q/S133A/S66F/T210M/V115G/Y107V/Y59L/Y89S); experiment: biochemical; format: binding; conditions: DR 7 DRB1*0701, biotinyl-peptide GFK(A)7, pH 5; read-out: Competitor Peptide IC50
# [3] = test system: EBV-B cell line 9065 (DRB1*1301/DQB1*0603); experiment: Flow cytometry binding of biotinylated peptides to EBV-B cells; design: species or system human; conditions: biotinylated peptide, EBV-B 9065 cells
# Protocol: For flow cytometry, EBV-B cells or L cells (2×10^5 cells), were incubated with an equal volume (100 μl) of biotinylated peptide (200 μg/ml) in each well of a U-bottomed 96-well plate. Following a 4-hour incubation on ice with gentle agitation, the unbound peptides were removed by washing. To increase the sensitivity of the fluorescent signal, two layers of FITC-Avidin were used to label the cells by incubating first with FITC-Avidin D, followed by biotinylated anti-Avidin D and again FITC-Avidin DCS (Vetor, Burlingame Calif.). Propidium Iodide (2.8 μg/ml) was added prior to FACS analysis to allow gating on viable cells.
compound,measurement,setting,value
CSCC[C@H](NC(=O)[C@H](CCCNC(=N)N)NC(=O)[C@H](CCSC)NC(=O)[C@H](CCCCN)NC(=O)[C@H](CO)NC(=O)[C@@H](NC(=O)[C@@H]1CCCN1C(=O)[C@H](CCCCN)NC(=O)[C@@H]1CCCN1C(=O)[C@@H]1CCCN1C(=O)[C@@H](N)CCCCN)C(C)C)C(=O)N[C@@H](C)C(=O)N[C@H](C(=O)N1CCC[C@H]1C(=O)N[C@@H](CC(C)C)C(=O)N[C@@H](CC(C)C)C(=O)N[C@@H](CCSC)C(=O)N[C@@H](CCC(N)=O)C(=O)N[C@@H](C)C(=O)O)[C@@H](C)O [CLIP83-101],IC50,[1],0.5 µM
same,IC50,[2],0.5 µM
CC(C)[C@H](NC(=O)[C@H](CC(N)=O)NC(=O)[C@@H]1CCCN1C(=O)[C@H](CC(N)=O)NC(=O)[C@H](C)NC(=O)[C@H](CC(N)=O)NC(=O)[C@@H]1CCCN1C(=O)[C@H](CC(=O)O)NC(=O)[C@@H](NC(=O)[C@H](CC(N)=O)NC(=O)[C@@H]1CCCN1C(=O)[C@H](CC(N)=O)NC(=O)[C@H](C)NC(=O)[C@H](CC(N)=O)NC(=O)[C@@H]1CCCN1C(=O)[C@@H](N)CC(=O)O)C(C)C)C(=O)O [T1],IC50,DR 11 (5) (DRB1*1101),> 100 µM
same,IC50,DR 8 (DRB1*0801),> 100 µM
same,IC50,DR 1 (DRB1*0101),> 100 µM
same,IC50,DR 2 (DRB5*0101),> 100 µM
same,IC50,DR 3 (DRB1*0301),> 100 µM
same,IC50,"DR 4 (DRB1*0401); DR 4 DRB1*0401, biotinyl-peptide UD4, read-out: Competitor Peptide IC50",> 100 µM
same,IC50,"DR 4 (DRB1*0401); soluble DR 4, indicator GFK(A)7 (FIG. 2A), read-out: IC50, inhibition of binding of biotinylated GFK(A)7",> 100 µM
same,IC50,DR 13 (DRB1*1301),> 100 µM
same,IC50,DR 7 (DRB1*0701),> 100 µM
Biotinyl-T1: NH2 terminal biotinylated T1 peptide (Biotin-DPNANPNVDPNANPNV),MFC,[3],could not be detected
